Results taken from the NIST ThermoML archive (doi:10.1016/j.tca.2005.10.007).

Conditions: 101.33 kPa, Liquid, Vibrating tube method

CC(O)CN (configuration not stated) [1-amino-2-propanol]
Conditions | mass density [kg/m3]
278.16 K | 972.17
278.65 K | 971.79
279.14 K | 971.4
279.65 K | 971.01
280.15 K | 970.62
280.65 K | 970.23
281.15 K | 969.84
281.65 K | 969.45
282.15 K | 969.05
282.65 K | 968.66
283.15 K | 968.27
283.65 K | 967.88
284.15 K | 967.49
284.65 K | 967.1
285.15 K | 966.7
285.65 K | 966.31
286.15 K | 965.92
286.64 K | 965.52
287.15 K | 965.13
287.65 K | 964.73
288.15 K | 964.34
288.65 K | 963.95
289.15 K | 963.55
289.65 K | 963.15
290.15 K | 962.76
290.65 K | 962.36
291.15 K | 961.97
291.64 K | 961.57
292.15 K | 961.18
292.65 K | 960.78
293.15 K | 960.38
293.64 K | 959.99
294.14 K | 959.59
294.64 K | 959.19
295.15 K | 958.79
295.65 K | 958.39
296.15 K | 957.99
296.65 K | 957.6
297.15 K | 957.2
297.64 K | 956.8
298.15 K | 956.4
298.65 K | 956
299.15 K | 955.6
299.64 K | 955.2
300.14 K | 954.8
300.64 K | 954.4
301.15 K | 954
301.65 K | 953.59
302.14 K | 953.2
302.65 K | 952.79
303.15 K | 952.39
303.64 K | 951.99
304.15 K | 951.59
304.65 K | 951.18
305.15 K | 950.78
305.64 K | 950.38
306.15 K | 949.98
306.65 K | 949.57
307.15 K | 949.17
307.64 K | 948.77
308.15 K | 948.36
308.65 K | 947.95
309.15 K | 947.55
309.65 K | 947.14
310.15 K | 946.74
310.65 K | 946.33
311.15 K | 945.92
311.64 K | 945.52
312.15 K | 945.11
312.64 K | 944.7
313.15 K | 944.3
313.65 K | 943.89
314.15 K | 943.48
314.65 K | 943.07
315.15 K | 942.66
315.65 K | 942.25
316.15 K | 941.84
316.65 K | 941.43
317.15 K | 941.03
317.65 K | 940.61
318.15 K | 940.2
318.65 K | 939.79
319.14 K | 939.38
319.65 K | 938.96
320.15 K | 938.55
320.64 K | 938.14
321.15 K | 937.72
321.65 K | 937.31
322.15 K | 936.9
322.65 K | 936.49
323.15 K | 936.08
323.65 K | 935.66
324.15 K | 935.25
324.65 K | 934.83
325.15 K | 934.42
325.65 K | 934.01
326.15 K | 933.59
326.65 K | 933.18
327.15 K | 932.76
327.65 K | 932.35
328.15 K | 931.93
328.66 K | 931.51
329.15 K | 931.09
329.66 K | 930.68
330.16 K | 930.26
330.66 K | 929.84
331.15 K | 929.42
331.66 K | 929
332.16 K | 928.58
332.66 K | 928.16
333.16 K | 927.74
333.66 K | 927.31
334.16 K | 926.89
334.66 K | 926.47
335.16 K | 926.05
335.66 K | 925.63
336.16 K | 925.2
336.66 K | 924.78
337.16 K | 924.36
337.66 K | 923.93
338.16 K | 923.5
338.66 K | 923.08
339.16 K | 922.65
339.66 K | 922.23
340.16 K | 921.8
340.66 K | 921.38
341.16 K | 920.95
341.66 K | 920.52
342.16 K | 920.09
342.66 K | 919.66
343.16 K | 919.23
343.66 K | 918.8
344.16 K | 918.37
344.66 K | 917.94
345.16 K | 917.51
345.66 K | 917.08
346.16 K | 916.65
346.66 K | 916.21
347.16 K | 915.78
347.66 K | 915.35
348.16 K | 914.92
348.66 K | 914.48
349.16 K | 914.05
349.66 K | 913.61
350.16 K | 913.18
350.66 K | 912.74
351.16 K | 912.3
351.66 K | 911.87
352.16 K | 911.43
352.66 K | 910.99
353.16 K | 910.55
353.66 K | 910.12
354.16 K | 909.68
354.66 K | 909.23
355.16 K | 908.8
355.66 K | 908.35
356.16 K | 907.91
356.66 K | 907.47
357.16 K | 907.03
357.66 K | 906.59
358.16 K | 906.14
358.66 K | 905.7
359.16 K | 905.26
359.66 K | 904.81
360.16 K | 904.36
360.65 K | 903.92
361.16 K | 903.47
361.66 K | 903.03
362.16 K | 902.58
362.66 K | 902.13
363.15 K | 901.68
363.16 K | 901.69
